In brackets after ≈: the same amount, converted by molar mass.

The text below walks through data of patent US11766443B2, “Cyclopentathiophene carboxamide derivatives as platelet activating factor receptor antagonists” (Boehringer Ingelheim International GmbH, priority 2021, dated 2023).

One series addresses T1, human PAFR (Homo sapiens, UniProt P25105).
T1 construct: expressed in transfected cells; host or cells: HEK293
Nature of the series: cellular HTRF IP1 endpoint assay: inhibition of PAFR activation by PAF C-16 ligand. The class given is cell-based. Conditions: HEK293 cells overexpressing human PAFR; PAF ligand 11 nM. As to the method:
The ability of compounds of formula (I.0) to inhibit the activation of the PAF receptor (PAFR) by the PAF C-16 ligand (PAF) is determined using the following cellular HTRF IP1 assay (IP1 Gq assay kit from Cisbio, Cat. no.: 62IP1APEJ) in assay buffer (1×HBSS, 20 mM Hepes, pH 7.4, 50 mM LiCl and containing 0.1% (w/v) BSA):
HEK293 cells overexpressing human PAFR (produced in-house) are seeded into a Poly-D-Lysine coated 384 well white cell culture microtiter assay plate with lid (15.000 cells per well). Subsequently, the plates are incubated over night at 37° C./5% CO2. On the next day, cells are being washed and subsequently, various concentrations of the test compounds (compounds in 100% DMSO; final concentration of DMSO in wells is 1%) are added to the assay plate via Echo 555 acoustic liquid handler. Plates are then incubated with lid for 90 minutes at 37° C./5% CO2. Thereafter, PAF ligand (Cayman Chemical Company, Item no.: 60900) is added at a final concentration of 11 nM. Plates are then incubated with lid for 60 minutes at 37° C./5% CO2. Then, 5 μl per well of Anti-IP1-Anti body-Cryptate solution and 5 μL per well of IP1-d2 solution are added to all wells of the plate and the plate is incubated for another 60 minutes light protected at room temperature. The emissions at 620 nm and 665 nm (Excitation wavelength: 320 nm) are measured using an Envision Reader (PerkinElmer).

Series [1] is described as follows: chemical stability in acidic aqueous media (pH ca. 1.2), HPLC recovery. The series is classed as physicochemical. Particulars: acetonitrile/0.1 M aqueous HCl 2:3, pH ca. 1.2, 37° C. Here is the method:
Degradation studies are used to simulate chemical stability of compounds in the acidic part of the gastro intestinal tract. The compounds of the invention show high chemical stability in acidic aqueous media (pH value ca. 1.2) what makes their application as medical drugs to treat human diseases less restricted and troublesome.
The chemical stability of the compounds of the invention at pH value of ca. 1.2 is determined as follows: Compound is dissolved in an HPLC vial in a mixture of acetonitrile/0.1 M aqueous HCl (ratio: 2:3; pH ca. 1.2) to get a concentration of approximately 0.25 mg/ml. The vial is then transferred into an HPLC autosampler system and maintained at a temperature of 37° C. A first sample is taken and injected immediately into a standard HPLC system with a UV DAD detector. A further samples is injected after 24 hours. Amount of degraded compound is measured by determining the recovery rate of compound [%] for the 24 h injection using an HPLC standard gradient method. Therefore the peak area of the main peak for the first injection (AUt0) is determined and set as 100%. Peak area of the main peak is determined also for the 24 h injection (AU24 h) and expressed as fraction of (AU24 h)/(AUt0)[%].

Series [2] in a line: aqueous solubility in buffer (from DMSO stock, 24 h shaking, LC-UV). Particulars: pH 2.2, aqueous buffer, kinetic from dmso stock.
Description: (§1) The aqueous solubility of the test compound is determined by comparing the amount dissolved in buffer to the amount in an ACN/water (1/1) solution. Starting from a 10 mM DMSO stock solution aliquots are diluted with ACN/water (1/1) or buffer, respectively. After 24 h of shaking, the solutions are filtrated and analyzed by LC-UV. The amount dissolved in buffer is compared to the amount in the ACN solution.
(§2) Solubility will usually be measured from 0.001 to 0.125 mg/mL at a DMSO concentration of 2.5%. If more than 90% of the compound is dissolved in buffer, the value is marked with “>”.
A further series can be described thus: physchem. Conditions: pH 2.2, aqueous buffer, kinetic from dmso stock.

T1 sequence (P25105 whole entry): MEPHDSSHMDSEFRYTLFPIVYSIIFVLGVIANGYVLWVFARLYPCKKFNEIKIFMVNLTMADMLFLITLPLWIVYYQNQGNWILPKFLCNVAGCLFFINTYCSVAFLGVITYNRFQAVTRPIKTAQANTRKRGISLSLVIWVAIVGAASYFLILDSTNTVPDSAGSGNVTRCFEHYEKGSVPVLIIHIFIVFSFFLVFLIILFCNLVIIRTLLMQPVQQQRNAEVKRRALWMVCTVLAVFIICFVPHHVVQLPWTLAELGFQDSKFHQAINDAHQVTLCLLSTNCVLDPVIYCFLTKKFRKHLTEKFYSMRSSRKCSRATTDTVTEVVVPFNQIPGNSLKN
Description for physchem: as §1, §2

For orientation: IC50 means the concentration that gives 50% inhibition. Higher therefore signals weaker potency in that assay. By solubility is commonly meant the dissolved amount per volume that the medium holds. A lower solubility goes with little dissolved substance. With `Cc1nnc2n1-c1sc3c(c1[C@H](c1ccccc1Cl)NC2)C[C@H](C(=O)N1CCOCC1)C3` [Example 2, (9R,13S)-9-(2-Chlorophenyl)-3-methyl-13-(morpholine-4-carbonyl)-16-thia-2,4,5,8-tetraazatetracyclo[8.6.0.0^2,6.0^11,15]-hexadeca-1(10),3,5,11(15)-tetraene], half-maximal inhibition against human PAFR (IC50) was put at 30 nM. Moreover, the “Amount of degradation after 24 h” value in series [1] was 1%. Besides, in series [2], the solubility at 24 h is > 117 µg/mL.
`Cc1nnc2n1-c1sc3c(c1[C@H](c1ccccc1Cl)NC2)C[C@H](C(=O)NCCOC(F)(F)F)C3` [Example 17] came in with an IC50 against human PAFR of 2.8 nM. In addition, the “Amount of degradation after 24 h” value in series [1] is 2%. Further, the solubility at 24 h in series [2] is > 114 µg/mL.
In the same order, the values of `CCCNC(=O)[C@@H]1Cc2sc3c(c2C1)[C@H](c1ccccc1Cl)NCc1nnc(C)n1-3` [Example 19] are 3 nM, 3% and > 111 µg/mL.
For `Cc1nnc2n1-c1sc3c(c1[C@H](c1ccccc1Cl)NC2)C[C@H](C(=O)N1CC2CC1C2)C3` [Example 21] the same measures were 9.1 nM, 1% and > 105 µg/mL.
For `Cc1nnc2n1-c1sc3c(c1[C@H](c1ccccc1Cl)NC2)C[C@H](C(=O)N1CCOC(C)(C)C1)C3` [Example 26] the same measures were 4.9 nM, 2.5%^ and > 136 µg/mL.
In turn, `Cc1nnc2n1-c1sc3c(c1[C@H](c1ccccc1Cl)NC2)C[C@H](C(=O)NC1CCC1)C3` [Example 28] returned an IC50 at human PAFR of 1.7 nM. For the same compound, in series [1], the “Amount of degradation after 24 h” value was found to be 0.5%^. For the same compound, the solubility at 24 h in series [2] was > 142 µg/mL.
Compound `Cc1nnc2n1-c1sc3c(c1C(c1ccccc1Cl)NC2)CC(C(=O)N1CCCC2(CC2)C1)C3` (stereo not drawn) [Example 66, 13-{5-Azaspiro[2.5]octane-5-carbonyl}-9-(2-chlorophenyl)-3-methyl-16-thia-2,4,5,8-tetraazatetracyclo-[8.6.0.0^2,6.0^11,15]hexadeca-1(10),3,5,11(15)-tetraene] had a 50% inhibitory concentration (IC50) against human PAFR of 2.7 nM. In addition, in the series “physchem”, the solubility at 24 h was > 124 µg/mL.
Regarding `CCc1nnc2n1-c1sc3c(c1[C@H](c1ccccc1Cl)NC2)C[C@H](C(=O)N1CCOCC1)C3` [Example 69], the IC50 against human PAFR was 35 nM. Besides, in series [2], the solubility at 24 h was > 121 µg/mL.
For `CCCN(CCC)C(=O)[C@@H]1Cc2sc3c(c2C1)[C@@H](c1ccccc1Cl)NCc1nnc(C)n1-3` [Example 72, (9S,13S)-9-(2-Chlorophenyl)-3-methyl-N,N-dipropyl-16-thia-2,4,5,8-tetraazatetracyclo[8.6.0.0^2,6.0^11,15]hexadeca-1(10),3,5,11(15)-tetraene-13-carboxamide] the same measures were 8.1 nM and > 101 µg/mL.
For `CCCN(CCC)C(=O)[C@@H]1Cc2sc3c(c2C1)[C@H](c1ccccc1Cl)NCc1nnc(C)n1-3` [Example 73, (9R,13S)-9-(2-chlorophenyl)-3-methyl-N,N-dipropyl-16-thia-2,4,5,8-tetraazatetracyclo[8.6.0.0^2,6.0^11,15]hexadeca-1(10),3,5,11(15)-tetraene-13-carboxamide] the same measures were 0.7 nM and > 110 µg/mL.
For the compound `Cc1nnc2n1-c1sc3c(c1C(c1ccccc1)NC2)CC(C(=O)N1CCOCC1)C3` (stereo not drawn) [Example 74], at human PAFR, the IC50 amounted to 252 nM. Besides, the solubility at 24 h in series [2] was > 104 µg/mL.
Consider `O=C(C1Cc2sc3c(c2C1)C(c1ccccc1Cl)NCc1nnc(C2CC2)n1-3)N1CCOCC1` (stereo not drawn) [Example 81, 9-(2-Chlorophenyl)-3-cyclopropyl-13-(morpholine-4-carbonyl)-16-thia-2,4,5,8-tetraazatetracyclo[8.6.0.0^2,6.0^11,15]hexadeca-1(10),3,5,11(15)-tetraene], for which, at human PAFR, half-maximal inhibition (IC50) was put at 224 nM. This compound showed a solubility at 24 h in series [2] of 68 µg/mL (≈ 137 µM).
